Key:
Experiment in all cases: relative viability (nuclei count vs DMSO), 5 days (fraction); higher = more cells survive
Axitinib + Vorinostat = compound: CNC(=O)c1ccccc1Sc1ccc2c(/C=C/c3ccccn3)n[nH]c2c1 [Axitinib] + O=C(CCCCCCC(=O)Nc1ccccc1)NO [Vorinostat] (partner 1 µM)
Outline: (§1)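 Lung cancer cell lines were pin-tool dosed in 1536-well plates on the day after seeding, with either a lone drug or a fixed anchor-drug dose plus five library-drug doses (not always all listed) in √10 steps. Nuclei were counted on 4× images after 5 days. Relative viability is the ratio of treated-well to vehicle-well nuclei counts, with each value a median of duplicate plates.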

Bemcentinib + Dasatinib = compound: Nc1nc(Nc2ccc3c(c2)CC[C@@H](N2CCCC2)CC3)nn1-c1cc2c(nn1)-c1ccccc1CCC2 [Bemcentinib] + Cc1nc(Nc2ncc(C(=O)Nc3c(C)cccc3Cl)s2)cc(N2CCN(CCO)CC2)n1 [Dasatinib] (partner 0.075 µM)
Outline: as §1

[1] = compound: CC1=CC=C(C=C1)C(=O)CN2C3=C(CCCC3)SC2=N [Pifithrin_alpha] + CS(=O)(=O)CCNCc1ccc(-c2ccc3ncnc(Nc4ccc(OCc5cccc(F)c5)c(Cl)c4)c3c2)o1 [Lapatinib] (partner 2 µM)
Outline: as §1

[2] = compound: CC1=CC=C(C=C1)C(=O)CN2C3=C(CCCC3)SC2=N [Pifithrin_alpha] + CC1(C)CCC(c2ccc(Cl)cc2)=C(CN2CCN(c3ccc(C(=O)NS(=O)(=O)c4ccc(N[C@H](CCN5CCOCC5)CSc5ccccc5)c(S(=O)(=O)C(F)(F)F)c4)cc3)CC2)C1 [Navitoclax] (partner 0.5 µM)
Outline: as §1

| Cell Line | relative viability (Axitinib + Vorinostat; first compound 0.005 µM) | relative viability (Axitinib + Vorinostat; first compound 0.01581 µM) | relative viability (Axitinib + Vorinostat; first compound 0.05 µM) | relative viability (Axitinib + Vorinostat; first compound 0.1581 µM) | relative viability (Axitinib + Vorinostat; first compound 0.5 µM) | relative viability (Bemcentinib + Dasatinib; first compound 0.04 µM) | relative viability (Bemcentinib + Dasatinib; first compound 0.1265 µM) | relative viability (Bemcentinib + Dasatinib; first compound 0.4 µM) | relative viability (Bemcentinib + Dasatinib; first compound 1.265 µM) | relative viability (Bemcentinib + Dasatinib; first compound 4 µM) | relative viability ([1]; first compound 1 µM) | relative viability ([1]; first compound 3.162 µM) | relative viability ([1]; first compound 10 µM) | relative viability ([1]; first compound 31.62 µM) | relative viability ([1]; first compound 100 µM) | relative viability ([2]; first compound 1 µM) | relative viability ([2]; first compound 3.162 µM) | relative viability ([2]; first compound 10 µM) | relative viability ([2]; first compound 31.62 µM) | relative viability ([2]; first compound 100 µM) |
| --- | --- | --- | --- | --- | --- | --- | --- | --- | --- | --- | --- | --- | --- | --- | --- | --- | --- | --- | --- | --- |
| NCI-H1755 | 0.77 | 0.8 | 0.797 | 0.714 | 0.572 | 0.379 | 0.511 | 0.397 | 0.438 | 0.41 | 0.96 | 1.01 | 0.966 | 0.812 | 1.23 | 0.935 | 0.973 | 0.888 | 0.628 | 0.966 |
| NCI-H1793 | 0.955 | 0.679 | 0.693 | 0.637 | 0.678 | 0.305 | 0.412 | 0.342 |  | 0.405 | 0.692 | 0.716 | 0.505 | 0.867 | 0.739 | 0.395 | 0.282 | 0.382 | 0.339 | 0.339 |
| NCI-H1915 | 0.552 | 0.516 | 0.508 | 0.536 | 0.517 | 0.304 | 0.302 | 0.307 | 0.332 | 0.331 | 0.923 | 1.15 | 0.883 |  | 1.13 | 0.791 | 0.793 | 0.788 |  | 0.801 |
| NCI-H1944 | 0.616 | 0.54 | 0.585 | 0.498 | 0.518 | 0.206 | 0.202 | 0.214 | 0.204 | 0.2 | 0.755 | 0.67 | 0.517 |  | 0.598 | 1.11 | 1.04 | 0.946 |  | 1.02 |
| NCI-H1975 | 0.704 | 0.729 | 0.715 | 0.644 | 0.733 | 0.344 | 0.424 | 0.432 | 0.386 | 0.354 | 0.895 | 0.544 | 0.655 | 0.489 | 0.761 | 0.918 | 0.848 | 0.621 | 0.616 | 0.686 |
| NCI-H1993 | 0.826 | 0.835 | 0.734 | 0.722 | 0.876 | 0.571 | 0.563 | 0.625 | 0.552 | 0.577 |  | 0.761 | 0.73 | 0.764 | 0.777 |  | 0.79 | 0.594 | 0.718 | 0.639 |
| NCI-H2009 | 0.732 | 0.783 | 0.736 | 0.716 | 0.821 | 0.24 | 0.303 | 0.276 | 0.272 | 0.247 | 0.368 | 0.906 | 0.847 | 0.457 | 0.813 | 1.24 | 1.1 | 1.05 | 0.784 | 0.957 |
| NCI-H2023 | 0.545 | 0.604 | 0.607 | 0.557 | 0.796 | 0.56 | 0.727 | 0.606 | 0.677 | 0.64 | 0.274 | 0.737 | 0.638 | 0.291 | 0.589 | 0.914 | 0.968 | 0.8 | 0.676 | 0.822 |

Source: the supplement of paper PMC10307832
